{
  "source": "ChEMBL document CHEMBL1153125",
  "about": "“Benzylidene cyclopentenediones: First irreversible inhibitors against botulinum neurotoxin A's zinc endopeptidase” (Bioorg Med Chem Lett, 2010)",
  "key": {"[1]": {"molecular_target": "72 kDa type IV collagenase (Homo sapiens) (UniProt P08253)", "sequence (P08253 110-660 limits assumed)": "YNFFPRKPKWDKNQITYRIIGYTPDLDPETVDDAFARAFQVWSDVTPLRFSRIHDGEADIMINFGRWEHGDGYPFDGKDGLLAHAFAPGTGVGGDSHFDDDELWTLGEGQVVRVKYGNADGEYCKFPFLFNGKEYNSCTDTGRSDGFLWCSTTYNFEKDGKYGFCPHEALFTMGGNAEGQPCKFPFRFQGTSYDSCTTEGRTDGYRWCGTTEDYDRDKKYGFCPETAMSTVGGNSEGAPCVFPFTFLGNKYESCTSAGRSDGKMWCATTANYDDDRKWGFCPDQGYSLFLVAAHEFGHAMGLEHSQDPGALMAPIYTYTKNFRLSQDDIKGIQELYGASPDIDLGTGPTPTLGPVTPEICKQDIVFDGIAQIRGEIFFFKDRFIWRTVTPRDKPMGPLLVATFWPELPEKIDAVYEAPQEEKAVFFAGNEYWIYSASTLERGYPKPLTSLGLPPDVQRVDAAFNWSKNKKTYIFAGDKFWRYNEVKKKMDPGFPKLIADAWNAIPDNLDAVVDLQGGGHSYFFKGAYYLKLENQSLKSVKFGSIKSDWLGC", "assay": "Ratio of Kinact to Ki for MMP2"}, "[2]": {"assay": "Selectivity for Clostridium botulinum BoNT/A over MMP9"}, "[3]": {"molecular_target": "Botulinum neurotoxin type A (Clostridium botulinum) (UniProt P0DPI0)", "sequence (P0DPI0 2-448 limits assumed)": "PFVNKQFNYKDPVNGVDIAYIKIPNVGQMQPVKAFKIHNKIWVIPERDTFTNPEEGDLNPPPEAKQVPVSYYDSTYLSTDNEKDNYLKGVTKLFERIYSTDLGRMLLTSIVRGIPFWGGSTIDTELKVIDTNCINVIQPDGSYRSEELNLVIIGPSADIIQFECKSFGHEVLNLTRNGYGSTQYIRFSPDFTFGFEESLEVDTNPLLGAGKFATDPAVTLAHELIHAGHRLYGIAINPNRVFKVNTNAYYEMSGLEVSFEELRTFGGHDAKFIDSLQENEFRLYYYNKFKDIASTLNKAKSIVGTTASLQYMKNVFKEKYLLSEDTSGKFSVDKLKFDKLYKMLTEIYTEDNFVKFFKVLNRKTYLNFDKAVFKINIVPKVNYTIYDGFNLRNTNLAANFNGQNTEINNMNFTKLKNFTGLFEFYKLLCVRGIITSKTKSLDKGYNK", "assay": "Ratio of Kinact to Ki for Clostridium botulinum BoNT/A"}, "[4]": {"molecular_target": "Matrix metalloproteinase-9 (Homo sapiens) (UniProt P14780)", "sequence (P14780 whole entry)": "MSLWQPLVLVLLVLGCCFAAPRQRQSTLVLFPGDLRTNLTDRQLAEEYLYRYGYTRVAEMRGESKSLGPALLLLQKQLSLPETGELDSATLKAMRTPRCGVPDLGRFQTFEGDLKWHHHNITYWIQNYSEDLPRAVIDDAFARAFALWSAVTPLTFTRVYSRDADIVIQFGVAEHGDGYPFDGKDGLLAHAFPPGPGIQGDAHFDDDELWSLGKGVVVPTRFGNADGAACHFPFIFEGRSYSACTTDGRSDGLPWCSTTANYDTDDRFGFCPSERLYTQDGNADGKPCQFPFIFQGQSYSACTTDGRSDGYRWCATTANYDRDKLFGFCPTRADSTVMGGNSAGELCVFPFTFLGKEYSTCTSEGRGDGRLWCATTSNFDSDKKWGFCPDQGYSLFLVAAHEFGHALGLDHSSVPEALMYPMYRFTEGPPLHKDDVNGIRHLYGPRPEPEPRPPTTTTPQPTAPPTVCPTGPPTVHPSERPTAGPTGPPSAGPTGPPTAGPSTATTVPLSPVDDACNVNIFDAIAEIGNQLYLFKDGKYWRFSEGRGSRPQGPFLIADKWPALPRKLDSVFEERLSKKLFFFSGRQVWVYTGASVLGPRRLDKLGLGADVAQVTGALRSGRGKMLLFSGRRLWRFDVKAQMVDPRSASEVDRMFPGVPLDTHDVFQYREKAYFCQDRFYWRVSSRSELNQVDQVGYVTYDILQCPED", "assay": "Ratio of Kinact to Ki for MMP9"}, "[5]": {"molecular_target": "Botulinum neurotoxin type A (Clostridium botulinum, UniProt P0DPI0)", "sequence (P0DPI0 2-448 limits assumed)": "as the sequence (P0DPI0 2-448 limits assumed) above", "assay": "Inhibition of Clostridium botulinum BoNT/A"}},
  "data": [
    {"smiles": "O=C1C=CC(=O)C1=Cc1ccc(Cl)cc1Cl", "values": [
      {"measurement": "Ratio", "setting": "[1]", "result": "< 33"},
      {"measurement": "Selectivity ratio", "setting": "[2]", "result": 9},
      {"measurement": "Ratio", "setting": "[3]", "result": 520},
      {"measurement": "Ratio", "setting": "[4]", "result": 61}
    ]},
    {"smiles": "Cc1cc(Cl)ccc1C=C1C(=O)C=CC1=O", "values": [
      {"measurement": "Selectivity ratio", "setting": "[2]", "result": 9},
      {"measurement": "Ratio", "setting": "[3]", "result": 580},
      {"measurement": "Ratio", "setting": "[4]", "result": 58}
    ]},
    {"smiles": "CCCCCc1ccc(C(=O)NO)cc1", "values": [
      {"measurement": "IC50", "setting": "[5]", "result": 41, "unit": "µM"}
    ]},
    {"smiles": "CCCCCc1ccc(C=C2C(=O)C=CC2=O)cc1", "values": [
      {"measurement": "Ratio", "setting": "[3]", "result": 80}
    ]},
    {"smiles": "Cc1cc(Cl)ccc1/C=C/C(=O)NO", "values": [
      {"measurement": "IC50", "setting": "[5]", "result": 0.8, "unit": "µM"}
    ]}
  ]
}
